Patent US20240368174A1, “Antiviral Heterocyclic Compounds” (Enanta Pharmaceuticals, Inc., priority 2023, published 2024)

The compounds below were run on HMPV clinical isolate A2 strain TN 94-49 (assay: HMPV antiviral assay, Method 2 (LLC-MK2 cells with CP-100-356, ATP-Lite)). Conditions: human metapneumovirus; hMPV A2 TN/94-49, LLC-MK2 cells with CP-100-356, Method 2.
Assay type: cell-based
Procedure: In vitro HMPV antiviral activity was evaluated using the clinical isolate A2 strain TN 94-49 (obtained from Dr. John Williams, Vanderbilt University, Tennessee) and LLC-MK2 cells (Millipore Sigma CB_85062804), an immortalized kidney epithelial cell line from Macaca mulatta. Compounds were resuspended in dimethyl sulfoxide (DMSO) at 10 mM, serially diluted and added to a 384-well source plate. Subsequently, the compounds were diluted and transferred onto 384-well assay plates using the Echo-650 automated liquid handling system (Beckman Coulter, Indiana). The test compounds were assessed in duplicate at a top concentration of 200 nM followed by 2.5-fold serial dilutions to give a total of 10 concentration points. DMSO control wells were also included on the assay plates and were either infected or not, acting as positive and negative controls. A2 TN 94-49 virus infections were performed in-suspension with LLC-MK2 cells. The cells were washed twice with PBS and removed from the cell-culture flask with 0.25% trypsin-EDTA (Thermo Fisher Scientific, MA). The trypsin-EDTA was inactivated by resuspending in 2% fetal bovine serum (FBS) and OptiMEM (ThermoFisher Scientific, MA) containing 1% antibiotic-antimycotic. Cells were pelleted by centrifuging for 5 minutes at 800 rpm, the supernatant was removed, and cells were re-suspended and washed in PBS plus 100 μg/mL CaCl2). This step was performed twice. Cells were then re-suspended in serum-free (SF)-OptiMEM containing 4 μg/mL TPCK-Trypsin (Sigma Aldrich, MO), 1% antibiotic-antimycotic (ThermoFisher Scientific, MA), 100 μg/mL CaCl2), and 4 μM of CP-100-356, a P-glycoprotein inhibitor. Cells were counted and seeded at a density of 5,000 cells/well, 12.5 μL/well. Virus infections were done at a multiplicity of infection (MOI) of 0.16 with 12.5 μL added per well. Virus infections were performed in infection media which contained SF-OptiMEM, 100 μg/mL CaCl2) and 1% antibiotic-antimycotic. HMPV viral stocks are suspended in infection media+5% glycerol, thus an equal volume of infection media+5% glycerol was added to uninfected wells to equalize the final % glycerol across all wells of the assay plate. The final concentration of TPCK-trypsin was 2 μg/mL. The final concentration of CP-100-356 was 2 μM. The assay plates were incubated at 37° C., 5% CO2 for 7 days. After 7 days incubation, 12.5 μL of ATP-Lite (PerkinElmer, MA) was added to each well and the raw luminescence values were determined using the Envision 2104 (Perkin Elmer, MA). The average of the raw luminescence values for the cells and virus only positive control wells was subtracted from all conditions tested and the percent cell health was determined by dividing these values by the average of the cells only negative control wells. EC50 values were then calculated by non-linear regression using a four-parameter curve logistic equation. The curve fit model employed was XLFit Dose Response One Site Model 200: y=(A+(B/(1+((x/C)^D)))), where A is the minimum y value, B is the maximum y value, C is the log EC50 value, and D is the slope factor.

SMILES | EC50 [nM]
COc1cc(C(=O)NC[C@@](O)(c2cccc(F)n2)c2cc3c(c(-c4cc(Cl)c(F)cc4F)n2)OC[C@]3(C)C(N)=O)cc2cc(C3CC3)nn12 [Example 206] | < 200
COc1cc(C(=O)NC[C@](O)(c2cc3c(c(-c4ccnc(F)c4Cl)n2)OC[C@]3(C)C(N)=O)C2CC2)cc2cn(C(F)F)nc12 [Example 207] | < 200
COc1cc(C(=O)NC[C@](O)(c2cc3c(c(-c4ccnc(F)c4Cl)n2)OC[C@]3(C)C(N)=O)C2CC2)cc2oc(C3CC3)nc12 [Example 208] | < 200
COc1cc(C(=O)NC[C@](O)(c2cc3c(c(-c4ccnc(F)c4Cl)n2)OC[C@]3(C)C(N)=O)C2CC2)cc2cn(C3(F)CC3)nc12 [Example 209] | < 200
COc1cc(C(=O)NCC(O)(c2ccc(F)cn2)c2cc3c(c(-c4cc(Cl)c(F)cc4F)n2)OC[C@]3(C)C(N)=O)cc2cn(C3CC3)nc12 (stereo partly drawn) [Example 210] | < 200
[2H]c1nc2c(OC)cc(C(=O)NC[C@@](O)(c3ccccc3)c3cc4c(c(-c5cc(Cl)c(F)cc5F)n3)OC[C@]4(C)C(N)=O)cc2cc1Cl [Example 220] | < 200
COc1cc(C(=O)NC[C@](O)(c2cc3c(c(-c4cc(Cl)c(F)cc4F)n2)OC[C@]3(C)C(N)=O)C2CC2)cc2cc(Cl)cnc12 [Example 225] | < 200
C[C@]1(C(N)=O)COc2c1cc([C@@](O)(CNC(=O)c1cc(OC3CC3)c3ncc(Cl)cc3c1)C1CC1)nc2-c1cc(Cl)c(F)cc1F [Example 226] | < 200
C[C@]1(C(N)=O)COc2c1cc([C@@](O)(CNC(=O)c1cc(C(F)(F)F)c3nn(C4CC4)cc3c1)c1ccccc1)nc2-c1cc(Cl)c(F)cc1F [Example 228] | < 200
C[C@]1(C(N)=O)COc2c1cc([C@@](O)(CNC(=O)c1cc(OC3CC3)c3nc(C4CC4)oc3c1)c1ccccc1)nc2-c1cc(Cl)c(F)cc1F [Example 233] | < 200
Cc1nc2c(OC3CC3)cc(C(=O)NC[C@@](O)(c3ccccc3)c3cc4c(c(-c5cc(Cl)c(F)cc5F)n3)OC[C@]4(C)C(N)=O)cc2o1 [Example 234] | < 200
COc1cc(C(=O)NC[C@](O)(c2cc3c(c(-c4cc(Cl)c(F)cc4F)n2)OC[C@]3(C)C(N)=O)C2CC2)cc(O)c1NC(=O)C1(F)CC1 [Example 236] | > 200
COc1cc(C(=O)NC[C@@](O)(c2ccccc2)c2cc3c(c(-c4cc(Cl)c(F)cc4F)n2)OC[C@]3(C)C(N)=O)cc2oc(C3(F)CC3)nc12 [Example 241] | < 200
COc1cc(C(=O)NC[C@@](O)(c2ccccc2)c2cc3c(c(-c4cc(Cl)c(F)cc4F)n2)OC[C@]3(C)C(N)=O)cc(O)c1NC(=O)C1(F)CC1 [Example 242] | > 200
COc1cc(C(=O)NC[C@](O)(c2cc3c(c(-c4cc(C(F)(F)F)ncc4F)n2)OC[C@]3(C)C(N)=O)C2CC2)cn2cc(C3CC3)nc12 [Example 246] | < 200
COc1cc(C(=O)NC[C@@](O)(c2cccc(F)c2)c2cc3c(c(-c4ccc5c(c4Cl)OC(F)(F)O5)n2)OC[C@]3(C)C(N)=O)cc2oc(C)nc12 [Example 285] | < 200
COc1cc(C(=O)NC[C@@](O)(c2cccc(F)c2)c2cc3c(c(-c4ccc5c(c4Cl)OC(F)(F)O5)n2)OC[C@]3(C)C(N)=O)cc2oc(C3CC3)nc12 [Example 286] | < 200
COc1cc(C(=O)NC[C@@](O)(c2ccccc2)c2cc3c(c(-c4cc(C(F)F)c(F)cc4F)n2)OC[C@]3(C)C(N)=O)cc2cn(C(F)F)nc12 [Example 300] | < 200
COc1cc(C(=O)NC[C@@](O)(c2cccc(F)c2)c2cc3c(c(-c4cc(C(F)(F)F)c(F)cc4F)n2)OC[C@]3(C)C(N)=O)cc2cn(C(F)F)nc12 [Example 301] | < 200
COc1cc(C(=O)NC[C@@](O)(c2ccccc2)c2cc3c(c(-c4cc(C(F)(F)F)c(F)cc4F)n2)OC[C@]3(C)C(N)=O)cc2cn(C3CC3)nc12 [Example 302] | < 200
COc1cc(C(=O)NC[C@@](O)(c2ccccc2)c2cc3c(c(-c4cc(C(F)(F)F)c(F)cc4F)n2)OC[C@]3(C)C(N)=O)cc2cn(C3(F)CC3)nc12 [Example 303] | < 200
COc1cc(C(=O)NC[C@@](O)(c2ccccc2)c2cc3c(c(-c4cc(C(F)(F)F)c(F)cc4F)n2)OC[C@]3(C)C(N)=O)cc2cn(C(F)F)nc12 [Example 304] | < 200
C[C@]1(C(N)=O)COc2c1cc([C@@](O)(CNC(=O)c1ccc3nc(C4CC4)oc3c1)c1cccc(F)c1)nc2-c1ccc(F)c(Cl)c1Cl [Example 312] | < 200
C[C@]1(C(N)=O)COc2c1cc([C@@](O)(CNC(=O)c1cc(OC3CC3)c3ncc(Cl)cc3c1)c1ccccc1)nc2-c1ccc(F)c(Cl)c1Cl [Example 313] | < 200
C[C@]1(C(N)=O)COc2c1cc([C@@](O)(CNC(=O)c1cc(OC3CC3)c3ncc(Cl)cc3c1)c1ccccc1)nc2-c1cc(C(F)(F)F)c(F)cc1F [Example 315] | < 200
COc1cc(C(=O)NC[C@](O)(c2cc3c(c(-c4cc(C(F)(F)F)c(F)cc4F)n2)OC[C@]3(C)C(N)=O)C2CC2)cc2cc(Cl)cnc12 [Example 316] | < 200
C[C@]1(C(N)=O)COc2c1cc([C@@](O)(CNC(=O)c1cc(OC3CC3)c3ncc(Cl)cc3c1)C1CC1)nc2-c1cc(C(F)(F)F)c(F)cc1F [Example 317] | < 200
C[C@]1(C(N)=O)COc2c1cc([C@@](O)(CNC(=O)c1cc(OC3CC3)n3nc(C4CC4)cc3c1)C1CC1)nc2-c1cc(C(F)(F)F)c(F)cc1F [Example 328] | < 200

Results, then the compound that gave them:

EC50 [nM] | SMILES
< 200 | C[C@]1(C(N)=O)COc2c1cc([C@@](O)(CNC(=O)c1cc(OC(F)F)c3nc(C4CC4)oc3c1)c1ccccc1)nc2-c1cc(Cl)c(F)cc1F [Example 216]
< 200 | C[C@]1(C(N)=O)COc2c1cc([C@@](O)(CNC(=O)c1ccc3nc(C4(F)CC4)oc3c1)c1ccccc1)nc2-c1cc(Cl)c(F)cc1F [Example 219]
> 200 | C[C@]1(C(N)=O)COc2c1cc([C@@](O)(CNC(=O)c1ccc3nc(C4CCC4)oc3c1)c1ccccc1)nc2-c1cc(Cl)c(F)cc1F [Example 221]
> 200 | C[C@]1(C(N)=O)COc2c1cc([C@@](O)(CNC(=O)c1ccc3nc(C(F)F)oc3c1)c1ccccc1)nc2-c1cc(Cl)c(F)cc1F [Example 222]
> 200 | C[C@]1(C(N)=O)COc2c1cc([C@@](O)(CNC(=O)c1ccc3nc(-c4ccc5nc(C(F)F)oc5c4)oc3c1)c1ccccc1)nc2-c1cc(Cl)c(F)cc1F [Example 223]
> 200 | CC(C)c1nc2ccc(C(=O)NC[C@@](O)(c3ccccc3)c3cc4c(c(-c5cc(Cl)c(F)cc5F)n3)OC[C@]4(C)C(N)=O)cc2o1 [Example 224]
> 200 | C[C@]1(C(N)=O)COc2c1cc([C@@](O)(CNC(=O)c1ccc3nc(-c4ccccc4)oc3c1)c1ccccc1)nc2-c1cc(Cl)c(F)cc1F [Example 227]
< 200 | C[C@]1(C(N)=O)COc2c1cc([C@@](O)(CNC(=O)c1cc(C(F)F)c3nn(C4CC4)cc3c1)c1ccccc1)nc2-c1cc(Cl)c(F)cc1F [Example 229]
> 200 | C[C@]1(C(N)=O)COc2c1cc([C@@](O)(CNC(=O)c1ccc3nc(Cc4ccccc4)oc3c1)c1ccccc1)nc2-c1cc(Cl)c(F)cc1F [Example 230]
< 200 | C[C@]1(C(N)=O)COc2c1cc([C@@](O)(CNC(=O)c1cc(OC(F)F)c3ncc(Cl)cc3c1)c1ccccc1)nc2-c1cc(Cl)c(F)cc1F [Example 231]
< 200 | C[C@]1(C(N)=O)COc2c1cc([C@@](O)(CNC(=O)c1cc(Cl)c3nc(C4CC4)oc3c1)c1ccccc1)nc2-c1cc(Cl)c(F)cc1F [Example 232]
< 200 | COc1cc(C(=O)NC[C@@](O)(c2ccccc2)c2cc3c(c(-c4cc(Cl)c(F)cc4F)n2)OC[C@]3(C)C(N)=O)cc2oc(N)nc12 [Example 237]
> 200 | C[C@]1(C(N)=O)COc2c1cc([C@@](O)(CNC(=O)c1ccc3nc(C4CC4)oc3c1)c1ccccc1)nc2-c1cc(C(F)(F)F)c(F)cc1F [Example 307]
< 200 | C[C@]1(C(N)=O)COc2c1cc([C@@](O)(CNC(=O)c1ccc3nc(C4CC4)oc3c1)c1ccccc1)nc2-c1cc(C(F)F)c(F)cc1F [Example 311]
